{
  "source": "paper PMC11239005",
  "about": "“Preclinical studies of RA475, a guanidine-substituted spirocyclic candidate RPN13/ADRM1 inhibitor for treatment of ovarian cancer” (PLOS ONE, 2024)",
  "key": {"RPN13": {"target": "T1, RPN13 (Homo sapiens, UniProt Q16186)", "T1 construct": "performed the labeling assay after treating ovarian cancer cell lysates (ES2 and SKOV3) in the presence of titrated doses of RA475; endogenous in cells; host or cells: ES2 and SKOV3 ovarian cancer cell lysates", "T1 sequence (Q16186 whole entry)": "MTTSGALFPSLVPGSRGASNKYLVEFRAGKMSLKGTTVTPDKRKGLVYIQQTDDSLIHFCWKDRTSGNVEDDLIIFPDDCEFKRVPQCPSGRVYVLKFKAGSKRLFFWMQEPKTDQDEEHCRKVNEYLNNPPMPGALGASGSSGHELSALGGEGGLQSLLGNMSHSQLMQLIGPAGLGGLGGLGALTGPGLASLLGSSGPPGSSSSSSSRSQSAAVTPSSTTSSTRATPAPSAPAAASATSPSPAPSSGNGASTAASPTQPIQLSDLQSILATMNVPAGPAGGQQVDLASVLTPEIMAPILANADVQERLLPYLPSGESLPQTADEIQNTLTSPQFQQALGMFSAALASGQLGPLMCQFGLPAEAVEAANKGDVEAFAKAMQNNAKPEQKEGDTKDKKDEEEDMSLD", "test": "Up284B competition labelling in ES2 and SKOV3 cell lysate", "format": "binding", "details": "titrated RA475, bortezomib 1 μM, Up284B 5 μM", "method": "Clarified cell lysate in MPER buffer (Pierce) was pretreated with streptavidin-coated magnetic beads for 45 min at 4°C to deplete non-specific biotinylated proteins in the cell lysate. […] Next, the samples were mixed with Laemmli sample buffer (BioRad) and boiled for 5 min. The proteins were separated using a 4–15% Bio-Rad Mini-PROTEAN SDS-PAGE gel (1 h at 100 V), and transferred to PVDF membrane overnight at 4°C (24 V). The membrane was blocked with 5% (w/v) BSA in phosphate buffered saline containing 0.1% (v/v) Tween 20 (PBST) for 1 h at RT, and washed for 20 min (3X with PBST). Then the membrane was probed with HRP-streptavidin (1:10,000 in PBST) for 1 h at RT, washed for 30 min (3X with PBST), and developed using HyGLO chemiluminescent detection reagent (Denville) and visualized using a Biorad Chemidoc imager.\nFig 2 RA475 binds to RPN13 and induces rapid apoptosis. […] C, D) RA475 competition labelling experiment. C) ES2 D) SKOV3 clarified cell lysate (40 μg/sample) in MPER buffer was pretreated with streptavidin-coated magnetic beads for 45 min at 4°C to deplete non-specific biotinylated proteins in the cell lysate. […] Next, the samples were mixed with Laemmli sample buffer (BioRad) and boiled for 5 min. The proteins were separated using a 4–15% Bio-Rad Mini-PROTEAN SDS-PAGE gel (1 h at 100 V), and transferred to PVDF membrane overnight at 4°C (24 V). […]"}, "[1]": {"test_system": "ID8-Vegf Defb29 cells stably expressing firefly luciferase", "test": "Syngeneic ID8-luc ovarian tumor model, IP", "format": "in vivo", "details": "C57BL6 mice, 40 mg/Kg every 3 days IP", "method": "Female C57BL6 mice were inoculated IP with 3x10^5 ID8-Defb29/VegfA-luc cells in 100 μL PBS. At day 3, mice were imaged for basal level luminescence activity with a Xenogen IVIS 200 after IP injection with luciferin (0.3 mg in 100 μL water). Mice were randomized into groups and treated IP with compounds or vehicle (25% (w/v) β-Hydroxypropylcyclodextrin in water), and imaged again on days indicated.\nIn addition to direct tumor cell killing, it is possible that RA475 may trigger an immunogenic cell death and thus anti-tumor immunity that could contribute to tumor control. Therefore, we elected to first test the treatment potential of RA475 in an ovarian tumor in a syngeneic mouse model. Since ovarian cancer is shed into, and spread within the peritoneal cavity, female C57BL6 mice were injected IP with ID8-Vegf Defb29 cells stably expressing firefly luciferase (0.5 x 10^6 cells ID8-luc) in PBS (100 μL). After 72 h, mice were imaged for their basal luminescence levels using an IVIS200 imager to confirm the presence of viable tumor cells. Mice with visible luminescence were randomized into two groups and treated with Vehicle (25% β-hydroxy propylcyclodextrin in water, 200 μL, every 3 days, IP) and RA475 (40 mg/Kg, every 3 days, IP). Mice were weighed and, after administration of luciferin (100 μL, 7.8 mg/mL), imaged every week to assess bioluminescence associated with tumor burden. […]\nFig 6 Treatment with RA475 of mice bearing an orthotopic syngeneic ovarian cancer model tumor. Female C57BL6 mice bearing ID8-Luc tumor were monitored for tumor burden by IVIS imaging (A), survival (B) and animal weight (C) after treatment with IP treatment every three days with RA475 (40mg/Kg, n = 8) or vehicle alone (n = 7). […] After 72 h, mice were imaged after administration of luciferin (100 μL, 7.8 mg/mL) for their basal luminescence levels using an IVIS200 imager. Mice with visible luminescence were randomized into two groups and treated with Vehicle alone (25% β-hydroxy propylcyclodextrin in water, 200 μL, every 3 days, IP) or RA475 (40 mg/Kg, every 3 days, IP). […]"}},
  "data": [
    {"smiles": "Cl.Cl.N#Cc1ccc(/C=C2/C(=O)/C(=C/c3ccc(C#N)cc3)C23CCN(C(=N)N)CC3)cc1", "note": "[RA475, 1,3-bis((E)-4-cyanobenzylidene)-2-oxo-7-azaspiro[3.5]nonane-7-carboximidamide dihydrochloride]", "values": [
      {"measurement": "competition with Up284B for binding to RPN13", "setting": "RPN13", "result": "efficiently competes"},
      {"measurement": "survival", "setting": "[1]", "result": "prolonged survival"},
      {"measurement": "tumor burden by bioluminescence", "setting": "[1]", "result": "tumor control"},
      {"measurement": "animal weight", "setting": "[1]; while on treatment", "result": "continue to gain weight"}
    ]}
  ]
}
